Test results as given in ChEMBL document CHEMBL5104193, “Hypoxia-Activated Prodrugs with Dual COX-2/CA Inhibitory Effects on Attenuating Cardiac Inflammation under Hypoxia” (J Med Chem, 2022).
Calls of active or inactive are those of the source. No cut-off for these calls is given here.

How the values were obtained:
H9c2 [1] = assay: Anti-inflammatory activity in rat H9c2 cells assessed as inhibition of endogenous IL-6 protein expression in presence of indomethacin by DAPI staining based immunofluorescence analysis; type: functional, cell-based
H9c2 [2] = assay: Anti-inflammatory activity in LPS/hypoxia induced rat H9c2 cells assessed as reduction of TNF-alpha protein expression at 10 uM in presence of indomethacin by Western blot analysis; type: functional, cell-based
[3] = Toxicity in Wistar rat assessed as change in BUN level in presence of indomethacin; settings: in vivo
H9c2 [4] = assay: Reversal of ATP level in LPS/hypoxia induced rat H9c2 cells in presence of indomethacin and Na2WO4 by multimode plate reader analysis; type: functional, cell-based
H9c2 [5] = assay: Anti-inflammatory activity in LPS/hypoxia induced cell injury in rat H9c2 cells assessed as reduction of IL-1beta protein expression at 10 uM in presence of indomethacin by Western blot analysis; type: functional, cell-based
H9c2 [6] = assay: Reversal of LPS/hypoxia induced mitochondrial membrane potential loss in rat H9c2 cells in presence of indomethacin by JC-1 dye based flow cytometry analysis; type: functional, cell-based
H9c2 [7] = assay: Anti-inflammatory activity in LPS/hypoxia induced rat H9c2 cells assessed as increase in VEGF expression at 10 uM in presence of indomethacin by Western blot analysis; type: functional, cell-based
Rattus norvegicus [8] = assay: Antiinflammatory activity against LPS/talc powder induced pericarditic Wistar rat assessed as reduction in heart swelling at 20 mg/kg, ip pretreated for 2 hrs followed by LPS/tal powder stimulation measured after 48 hrs in presence of indomethacin; type: functional, organism-based; settings: time 50.0 hrs
Rattus norvegicus [9] = assay: Antiinflammatory activity against LPS/talc powder induced pericarditic Wistar rat assessed as reduction in torsion T wave inversion at 20 mg/kg, ip pretreated for 2 hrs followed by LPS/tal powder stimulation measured after 48 hrs in presence of indomethacin by ECG analysis; type: functional, organism-based; settings: time 50.0 hrs
H9c2 [10] = assay: Reversal of ATP level in LPS/hypoxia induced rat H9c2 cells in presence of indomethacin by multimode plate reader analysis (reference value: 21.37 nmol/mg); type: functional
Rattus norvegicus [11] = assay: Antiinflammatory activity against LPS/talc powder induced pericarditic Wistar rat assessed as reduction in U wave flattening at 20 mg/kg, ip pretreated for 2 hrs followed by LPS/tal powder stimulation measured after 48 hrs in presence of indomethacin by ECG analysis; type: functional, organism-based; settings: time 50.0 hrs
Rattus norvegicus [12] = assay: Antiinflammatory activity in LPS/talc powder induced pericarditic Wistar rat assessed as increase in cTNI level in serum at 20 mg/kg, ip pretreated for 2 hrs followed by LPS/tal powder stimulation measured after 48 hrs in presence of indomethacin (reference value: 0.167+/-0.025 ng/ml); type: functional; settings: time 50 hrs
[13] = Toxicity in Wistar rat assessed as change in CRE level in presence of indomethacin; settings: in vivo
H9c2 [14] = assay: Protection against LPS/hypoxia induced cell injury in rat H9c2 cells assessed as recovery of cell viability in presence of indomethacin and Na2WO4 by CCK-8 assay; type: functional, cell-based
H9c2 [15] = assay: Anti-inflammatory activity in rat H9c2 cells assessed as downregulation of cytochrome C expression at 10 uM by Western blot analysis; type: functional, cell-based
Rattus norvegicus [16] = assay: Antiinflammatory activity in LPS/talc powder induced pericarditic Wistar rat assessed as increase in CK-MB level in serum at 20 mg/kg, ip pretreated for 2 hrs followed by LPS/tal powder stimulation measured after 48 hrs in presence of indomethacin (reference value: 4140+/-256.23 U/L); type: functional; settings: time 50 hrs
H9c2 [17] = assay: Protection against LPS/hypoxia induced apoptosis in rat H9c2 cells assessed as reduction in red fluorescence by confocal microscopy analysis; type: functional, cell-based
H9c2 [18] = assay: Inhibition of intracellular ROS level in LPS/hypoxia induced rat H9c2 cells in presence of indomethacin and Na2WO4 by DCFH-DA probe based fluorescence confocal microscopy analysis; type: functional, cell-based
H9c2 [19] = assay: Inhibition of intracellular ROS level in LPS/hypoxia induced rat H9c2 cells in presence of indomethacin by DCFH-DA probe based fluorescence confocal microscopy analysis; type: functional, cell-based
Rattus norvegicus [20] = assay: Antiinflammatory activity against LPS/talc powder induced pericarditic Wistar rat assessed as elimination of pericardial effusion at 20 mg/kg, ip pretreated for 2 hrs followed by LPS/tal powder stimulation measured after 48 hrs in presence of indomethacin; type: functional, organism-based; settings: time 50.0 hrs
H9c2 [21] = assay: Anti-inflammatory activity in rat H9c2 cells assessed as downregulation of cytochrome C expression at 10 uM in presence of indomethacin by Western blot analysis; type: functional, cell-based
[22] = Toxicity in Wistar rat assessed as change in ALT level in presence of indomethacin; settings: in vivo
H9c2 [23] = assay: Protection against LPS/hypoxia induced apoptosis in rat H9c2 cells assessed as reduction in red fluorescence in presence of indomethacin by confocal microscopy analysis; type: functional, cell-based
H9c2 [24] = assay: Protection against LPS/hypoxia induced apoptosis in rat H9c2 cells assessed as reduction in green fluorescence in presence of indomethacin by confocal microscopy analysis; type: functional, cell-based
NTR = assay: Stability of the compound assessed as NTR (unknown origin) mediated hydrolysis by measuring half life by UV spectrophotometry; type: ADME; settings: human, NTR enzyme
H9c2 [25] = assay: Protection against LPS/hypoxia induced cell injury in rat H9c2 cells assessed as recovery of cell viability in presence of indomethacin by CCK-8 assay (reference value: 69.0%); type: functional
H9c2 [26] = assay: Protection against LPS/hypoxia induced apoptosis in rat H9c2 cells assessed as reduction in necrotic cells at 10 umol/L incubated for 4 hrs under hypoxia condition in presence of Indomethacin by AnnexinV-FITC/propidium iodide staining based flow cytometry analysis (reference value: 31.02%); type: functional; parameters: scale not given: the % may be the effect or the level left; settings: dose 10 µmol/L, at 10 µM
H9c2 [27] = assay: Protection against LPS/hypoxia induced apoptosis in rat H9c2 cells assessed as reduction in necrotic cells at 10 umol/L incubated for 4 hrs under hypoxia condition by AnnexinV-FITC/propidium iodide staining based flow cytometry analysis (reference value: 31.02%); type: functional; parameters: scale not given: the % may be the effect or the level left; settings: dose 10 µmol/L, at 10 µM
H9c2 [28] = assay: Anti-inflammatory activity in LPS/hypoxia induced rat H9c2 cells assessed as reduction of IL-6 protein expression at 10 uM in presence of indomethacin by Western blot analysis; type: functional, cell-based
H9c2 [29] = assay: Reversal of LPS/hypoxia induced mitochondrial membrane potential loss in rat H9c2 cells assessed as increase in JC-1 polymer morphology in presence of indomethacin by JC-1 dye based flow cytometry analysis; type: functional, cell-based; settings: time 20.0 min
[30] = Inhibition of Carbonic anhydrase (unknown origin); parameters: species or system Homo sapiens
H9c2 [31] = assay: Protection against LPS induced cell injury in rat H9c2 cells assessed as increase in cell viability under hypoxic condition at 0.001 to 10 uM by CCK-8 assay; type: functional, cell-based; settings: dose 0.001-10 µM

## NS(=O)(=O)c1nnc(NC(=O)CCCCc2cn(CC(=O)O)nn2)s1
H9c2 [1]
  Activity: Active
H9c2 [2]
  Activity: Active
[3]
  Activity: Toxic
H9c2 [4]
  Activity: Active
H9c2 [5]
  Activity: Active
H9c2 [6]
  Activity: Active
H9c2 [7]
  Activity: Active
Rattus norvegicus [8]
  Activity: Active
Rattus norvegicus [9]
  Activity: Active
H9c2 [10]
  Activity: 47.52 nmol/mg
Rattus norvegicus [11]
  Activity: Active
Rattus norvegicus [12]
  Activity: 0.121 ng/mL
[13]
  Activity: Toxic
H9c2 [14]
  Activity: Active
H9c2 [15]
  Activity: Active
Rattus norvegicus [16]
  Activity: 2620 U/L
H9c2 [17]
  Activity: Active
H9c2 [18]
  inhibition: Active
H9c2 [19]
  inhibition: Active
Rattus norvegicus [20]
  Activity: Active
H9c2 [21]
  Activity: Active
[22]
  Activity: Toxic
H9c2 [23]
  Activity: Active
H9c2 [24]
  Activity: Active
NTR
  half-life: 8.3 min
H9c2 [25]
  Activity: 91.8%
H9c2 [26]
  Activity: 9.61%
H9c2 [27]
  Activity: 23.78%
H9c2 [28]
  Activity: Active
H9c2 [29]
  Activity: Active

## NS(=O)(=O)c1ccccc1 [BENZENESULFONAMIDE]
[30]
  IC50: 9.2 µM

## COc1ccc2cc([C@H](C)C(=O)OCc3cc(C)cc(COC(=O)NCCc4ccc(S(N)(=O)=O)cc4)c3OCc3ccc([N+](=O)[O-])cc3)ccc2c1
H9c2 [31]
  Activity: Active

## Cc1cc(CO)c(OCc2ccc([N+](=O)[O-])cc2)c(COC(=O)Cn2cc(CCCCC(=O)Nc3nnc(S(N)(=O)=O)s3)nn2)c1
H9c2 [31]
  Activity: Active

## COc1ccc2c(c1)c(CC(=O)OCc1cc(C)cc(COC(=O)NCCc3ccc(S(N)(=O)=O)cc3)c1OCc1ccc([N+](=O)[O-])cc1)c(C)n2C(=O)c1ccc(Cl)cc1
H9c2 [31]
  Activity: Active
